Measurements from paper PMC8455565 (Scientific Reports, 2021).

Tests used:
BTK [1] = molecular target: T1, BTK (Homo sapiens, UniProt Q06187); assay: Kinase selectivity biochemical assay (FRET), BTK; conditions: Supplementary Table 1, biochemical assay
JAK3 = molecular target: T2, JAK3 (Homo sapiens, UniProt P52333); assay: Kinase selectivity biochemical assay, JAK3; conditions: biochemical assay
T2 sequence (P52333 1-1124): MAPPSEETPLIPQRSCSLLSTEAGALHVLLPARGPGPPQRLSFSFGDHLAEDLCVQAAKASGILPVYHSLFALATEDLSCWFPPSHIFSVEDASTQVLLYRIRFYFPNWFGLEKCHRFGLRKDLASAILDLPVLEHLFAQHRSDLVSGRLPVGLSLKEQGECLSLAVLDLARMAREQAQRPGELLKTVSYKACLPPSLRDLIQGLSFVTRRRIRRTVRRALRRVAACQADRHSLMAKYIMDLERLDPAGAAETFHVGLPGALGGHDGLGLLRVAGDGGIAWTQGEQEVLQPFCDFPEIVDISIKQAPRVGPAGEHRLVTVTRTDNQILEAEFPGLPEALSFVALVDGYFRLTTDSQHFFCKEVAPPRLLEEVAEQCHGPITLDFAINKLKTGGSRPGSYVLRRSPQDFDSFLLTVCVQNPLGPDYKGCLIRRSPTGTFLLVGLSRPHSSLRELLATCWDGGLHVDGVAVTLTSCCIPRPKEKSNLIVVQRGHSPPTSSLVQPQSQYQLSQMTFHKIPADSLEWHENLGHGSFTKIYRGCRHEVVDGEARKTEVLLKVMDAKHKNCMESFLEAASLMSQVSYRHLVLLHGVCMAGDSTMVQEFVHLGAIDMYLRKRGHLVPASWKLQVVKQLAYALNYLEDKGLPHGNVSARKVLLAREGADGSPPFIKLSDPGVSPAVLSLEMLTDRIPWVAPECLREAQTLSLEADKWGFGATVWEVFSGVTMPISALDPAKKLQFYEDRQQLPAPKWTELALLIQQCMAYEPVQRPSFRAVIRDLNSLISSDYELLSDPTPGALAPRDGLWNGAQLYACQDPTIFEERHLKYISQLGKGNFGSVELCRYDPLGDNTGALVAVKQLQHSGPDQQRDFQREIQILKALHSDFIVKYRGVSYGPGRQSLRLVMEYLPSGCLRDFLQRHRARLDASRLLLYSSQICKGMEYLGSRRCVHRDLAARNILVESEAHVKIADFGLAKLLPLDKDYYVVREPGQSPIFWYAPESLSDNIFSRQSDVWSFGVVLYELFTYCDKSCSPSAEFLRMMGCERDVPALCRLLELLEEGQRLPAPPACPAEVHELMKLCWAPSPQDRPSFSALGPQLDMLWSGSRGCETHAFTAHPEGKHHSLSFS

A431 = assay: Cell growth inhibition in EGFR overexpressed A431; assay type: cell-based; conditions: Homo sapiens, A-431; cellular level; read-out: IC50, cell growth inhibition in EGFR overexppressed A431
CTLL-2 = assay: IL-2 induced T cell proliferation in CTLL-2; assay type: cell-based; conditions: Mus musculus, cellular level
BTK [2] = molecular target: T1, BTK; assay: hBTK Lanthascreen biochemical activity
BTK [3] = molecular target: T1, BTK; assay: BTK occupancy in B cell line (Ramos cells, biotinylated probe, AlphaScreen); assay type: cell-based
Procedure: A total of 5 × 10^5 Ramos cells/well were plated in 96-well PDL-coated plates in DMEM with high glucose (GIBCO) supplemented with 10% FBS. Serial dilutions of LY3439943 in DMSO (final DMSO concentration, 0.4%) were incubated with the cells for 1 h at 37 °C. An equal volume of a covalent biotinylated BTK probe was added (final concentration, 167 nM), and the cells were incubated for another 1 h at 37 °C. The cells were lysed, and the amount of BTK was determined using the AlphaScreen IgG Detection Kit (Perkin Elmer 6760617R) and an anti-BTK antibody (Thermo Scientific Cat# MA5-14929) following the manufacturer’s instructions. The signal was measured at 615 nm with an Envision plate reader (Perkin Elmer).

B cells [4] = assay: B cell inhibition in whole blood; assay type: cell-based
B cells [5] = assay: Antigen-presentation assay (OVA-preactivated B cells with DO11.10 T cells); assay type: cell-based, mouse
Procedure: DO11.10 and BALB/C mice were purchased from The Jackson Laboratory and housed in accordance with the policies of the IACUC of Eli Lilly and Company. BALB/C mice were primed with 10 µg/ml ovalbumin (OVA) in Alhydrogel (InvivoGen, CA, USA) at a 2:1 ratio and boosted with 10 µg/ml OVA in PBS 2 weeks after priming. BALB/C mice were sacrificed 4 days after boosting, and B cells were purified from splenocytes using CD19 microbeads (Miltenyi Biotec) for positive selection. B cells were preincubated with HM71305/LSN3359180 for 1 h before the addition of OVA protein or OVA323-339 peptide, and T cells were positively isolated from DO11.10 transgenic mice using CD4 microbeads (Miltenyi Biotec). The supernatants were collected after 18 h, and IL-2 was measured by ELISA using mouse IL-2 DuoSet (DY402, R&D Systems). FACS analysis of CD69 (H1.2F3, Biolegend), CD86 (B7-2, BD Biosciences) and H2-IA/IE (M5/114.15.3, BD Biosciences) was performed using BD LSR Fortessa, and data were analyzed by FlowJo10 (FlowJo, LLC).

BTK [6] = molecular target: T1, BTK; assay: BTK occupancy in whole blood ex vivo; assay type: cell-based; set-up: from tissue; host or cells: whole blood

T1 sequence (Q06187 whole entry): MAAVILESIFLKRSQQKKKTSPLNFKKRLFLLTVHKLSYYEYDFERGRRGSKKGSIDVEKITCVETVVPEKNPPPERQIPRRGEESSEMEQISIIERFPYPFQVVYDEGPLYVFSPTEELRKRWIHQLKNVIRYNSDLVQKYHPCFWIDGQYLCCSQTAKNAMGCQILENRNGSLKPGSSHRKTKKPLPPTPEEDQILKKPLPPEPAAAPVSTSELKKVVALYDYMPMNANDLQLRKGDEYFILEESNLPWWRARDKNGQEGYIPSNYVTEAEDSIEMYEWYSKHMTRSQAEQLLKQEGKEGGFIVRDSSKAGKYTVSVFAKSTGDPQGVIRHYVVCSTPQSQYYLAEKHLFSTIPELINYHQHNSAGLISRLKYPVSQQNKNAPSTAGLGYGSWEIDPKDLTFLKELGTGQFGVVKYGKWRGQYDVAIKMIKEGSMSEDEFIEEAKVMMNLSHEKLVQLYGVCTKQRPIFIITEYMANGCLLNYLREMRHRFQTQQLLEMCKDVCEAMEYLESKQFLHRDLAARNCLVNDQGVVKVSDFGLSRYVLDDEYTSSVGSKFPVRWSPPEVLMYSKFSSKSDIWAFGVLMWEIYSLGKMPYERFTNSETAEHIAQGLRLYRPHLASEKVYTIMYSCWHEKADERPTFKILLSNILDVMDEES

C=CC(=O)Nc1cccc(Oc2nc(Nc3ccc(N4CCN(C(C)C)CC4)cc3)nc3ccoc23)c1 [HM71035]
IC50 (BTK [1]): 3 nM | IC50 (JAK3): 39 nM | IC50 (A431): > 500 nM | IC50 (CTLL-2): > 500 nM | IC50 (BTK [2]): 3 nM | IC50 (BTK [3]): 6 nM | IC50 (B cells [4]): 440 nM | B cell-dependent T cell activation (IL-2 secretion, CD69 expression on T cells) (B cells [5]; B cells preincubated 1 h with compound, coculture with DO11.10 T cells): reduced in a dose-dependent fashion | IC50 (B cells [5]; Mus musculus, B-cell, in vivo preactivated B cells, roughly, read-out: IC50 effect on the B cells (CD80 and CD86 expression)): ~100 nM | IC50 (BTK [6]): 170 nM
